Structures are written as SMILES.

For data set [1] the following is noted: non-fasting period and fasting period, control group versus liver cirrhosis model group, 2 mL/kg i.v., 0-120 minutes.
Procedure: CCl4 (olive oil: CCl4=1:1) was administered subcutaneously to the dorsal regions of male SD rats (10 weeks of age: n=3) in an amount of 2 mL/kg twice a week for 12 weeks, thereby creating liver cirrhosis model rats. With a biogas analysis device (product name: Oxymax, Columbus Instruments), respiratory quotient and energy consumption of untreated rats (control group) and liver cirrhosis model rats (liver cirrhosis model group) were measured and calculated according to the instructions of the device.
Further, both the untreated rats and the liver cirrhosis model rats were fed from 19:00 on Day 1 of the test to 13:00 on Day 3, and were fasted from 13:00 on Day 3 to 13:00 on Day 4, as shown in FIG. 1 shown later. During the non-fasting period, the rats were allowed free access to feed (product name: CRF-1, Oriental Yeast Co., Ltd.). […]
The above-prepared ^13C-palmitic acid-containing composition was individually intravenously administered to the liver cirrhosis model rats and untreated rats prepared in the above Reference Example in an amount of 2 mL/kg (n=3). […] Expired air was collected at time points between before administration (0 minutes) to 120 minutes after the administration of ^13C-palmitic acid-containing composition. Δ^13C(‰) was measured and determined using an expired air analysis mass spectrometer (ABCA: product of Sercon).
Details of data set [2]: species or system male SD rats (liver cirrhosis model rats and untreated rats). The note with it: rat, in vivo, iv. Here is the method:
U-^13C-glucose (MW: 186, Cambridge Isotope Laboratories, Inc.) was dissolved in a physiological saline solution at a concentration of 50 μmol/ml, thereby preparing a ^13C-glucose-containing composition.

For the compound `CCCCCCCCCCCCCCC[13C](=O)[O-].[Na+]` [1-^13C-sodium palmitate], the “expired air reaction (Δ^13C(‰))” value in data set [1] was “showed similar transitions in the control group and the liver cirrhosis model group”.

Regarding `OC[C@H]1OC(O)[C@H](O)[C@@H](O)[C@@H]1O` (some centres unmarked) [^13C-glucose-containing composition, U-^13C-glucose], the “expired air reaction (Δ^13C(‰)), day versus night” value in data set [2] is “a significant difference in the expired air reaction (Δ^13C(‰)) was not observed between day and night”.

The values above are taken from patent publication US10393730B2, “Energy malnutrition evaluation for liver disease test subject” (OTSUKA PHARMACEUTICAL CO., LTD., priority 2014, dated 2019).
